Measured values from US11479802B2, “Assays for screening activity of modulators of members of the hydroxy steroid (17-beta) dehydrogenase (HSD17B) family” (Regeneron Pharmaceuticals, Inc., priority 2017, dated 2022).
Where a name gives a salt, the structure may show the parent alone.

Target: T1, human HSD17B13 (Homo sapiens, UniProt Q7Z5P4)
T1 sequence (Q7Z5P4 20-300): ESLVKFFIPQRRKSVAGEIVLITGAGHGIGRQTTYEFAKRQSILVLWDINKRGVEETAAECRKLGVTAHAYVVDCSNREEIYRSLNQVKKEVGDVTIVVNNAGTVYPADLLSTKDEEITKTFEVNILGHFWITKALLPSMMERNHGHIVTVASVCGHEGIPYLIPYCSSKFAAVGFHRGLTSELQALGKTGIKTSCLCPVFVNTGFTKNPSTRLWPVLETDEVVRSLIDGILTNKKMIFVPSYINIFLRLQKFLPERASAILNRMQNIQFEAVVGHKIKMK
Test: Substrate screening of steroid and bioactive lipid libraries against purified recombinant HSD17B13 (NADH-linked luciferase assay)
Type: biochemical
Conditions: for HSD17B13 Enzymatic Activity Relative Light Units: 500 μM NAD+, 100 ng enzyme, 3 hours at 23° C.; for HSD17B13 Enzymatic Activity Percent Estradiol Control: normalized to 50 μM estradiol after subtraction of 5% DMSO
How it was run: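 Recombinant human HSD17B13 (100 ng) incubated 3 h at 23° C in 0.2 M Tris-HCl pH 7.5 with 500 μM NAD+ and 5 μM bioactive lipid or 50 μM steroid (5% DMSO). NADH measured by luciferase luminescence after 1 h; values as percent of 50 μM estradiol control after 5% DMSO subtraction.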

[1] = Bioactive Lipid Library, 5 μM bioactive lipid (Estradiol Control 50 μM)
[2] = Bioactive Lipid Library, 5 μM bioactive lipid

Row | Compound | HSD17B13 Enzymatic Activity Relative Light Units [1] [RLU] | HSD17B13 Enzymatic Activity Percent Estradiol Control [2] [%] | HSD17B13 Enzymatic Activity Relative Light Units (Steroid Library, 50 μM steroid) [RLU] | HSD17B13 Enzymatic Activity Percent Estradiol Control (Steroid Library, 50 μM steroid) [%]
1 | Ptdlns-(4)-P1 (1,2-dipalmitoyl) (ammonium salt) | 123240 | −15.24 |  | 
2 | CCCCCCCCCCCCCCCC(=O)OC[C@H](COP(=O)([O-])OCC[N+](C)(C)C)OC(=O)CCCC(=O)O [PGPC] | 371440 | 6.98 |  | 
3 | CCCCC[C@H](O)/C=C/[C@H]1[C@H](O)CC(=O)[C@@H]1CCCCC(=O)O [2,3-dinor Prostaglandin E1] | 344240 | 4.83 |  | 
4 | CCCCC/C=C\C=C\[C@@H](O)CCCCCCCC(=O)O [9(S)-HODE] | 539560 | 18.79 |  | 
5 | CCCCC[C@H]1O[C@H]1C/C=C\C/C=C\C/C=C\CCCC(=O)NCCO [14(15)-EET Ethanolamide] | 428760 | 7.83 |  | 
6 | CC[C@H](CC[C@@H](C)[C@H]1CC[C@H]2[C@@H]3CC=C4C[C@@H](O)CC[C@]4(C)[C@H]3CC[C@]12C)C(C)C [Beta-sitosterol] |  |  | 168880 | 0.14
7 | CCCCC/C=C\C/C=C\C=C\C(O)C/C=C\CCCC(=O)O (racemic) [(±)8-HETE] | 592720 | 22.75 |  | 
8 | O=P(O)(O)OC1[C@@H](OP(=O)(O)O)[C@H](OP(=O)(O)O)C(O)[C@H](OP(=O)(O)O)[C@H]1OP(=O)(O)O (stereo partly drawn) [D-myo-Inositol-1,2,4,5,6-pentaphosphate (sodium salt)] | 398080 | 5.52 |  | 
9 | CCC(O)/C=C/C=C\C/C=C\C/C=C\C/C=C\C/C=C\CCC(=O)O (racemic) [(±)20-HDHA] | 1400640 | 82.82 |  | 
10 | CCCCC[C@H](O)/C=C/C=C\CCCCCCCCCC(=O)O [15(S)-HEDE] | 1060680 | 57.54 |  | 
11 | C[C@]12C=CC(=O)C=C1CC[C@@H]1[C@@H]2C(=O)C[C@@]2(C)[C@H]1CC[C@]2(O)C(=O)CO [Prednisone] |  |  | 196720 | 0.63
12 | Ptdlns-(5)-P1 (1,2-dipalmitoyl) (ammonium salt) | 19160 | −23.10 |  | 
13 | CCCCCC=CCC=CCC=CCC(O)C(O)CCCC(=O)O (racemic) [(±)5(6)-DiHET] | 353120 | 4.93 |  | 
14 | C[C@]12CCC(=O)C=C1CC[C@@H]1[C@@H]2[C@@H](O)C[C@]2(C=O)[C@@H](C(=O)CO)CC[C@@H]12 [Aldosterone] |  |  | 217400 | 0.99
15 | CCCCC[C@H](O)/C=C/[C@@H]1[C@H]2C/C(=C/CCCC(=O)O)C[C@H]2C[C@H]1O [Carbaprostacyclin] | 380280 | 7.68 |  | 
16 | CCCCC/C=C\C=C\C(O)C/C=C\C/C=C\CCCC(=O)O (racemic) [(±)11-HETE] | 767720 | 35.76 |  | 
17 | O=C(O)CCC/C=C\C/C=C\C/C=C\C/C=C\CCCCCO [20-HETE] | 332640 | 0.57 |  | 
18 | CCCCC[C@H](O)C/C=C1/C(=O)C=C[C@@H]1C/C=C\CCCC(=O)O [Δ12-Prostaglandin J2] | 343320 | 4.76 |  | 
19 | CCCCCC(=O)/C=C/C=C\CCCCCCCCCC(=O)O [15-OxoEDE] | 261480 | −1.88 |  | 
20 | Ptdlns-(3,4,5)-P3 (1,2-dipalmitoyl) (sodium salt) | 334600 | 0.72 |  | 
21 | CCCCCCCC/C=C(\CCCCCCCC(=O)O)[N+](=O)[O-] [9-Nitrooleate] | 31600 | −22.16 |  | 
22 | CCCCC/C=C\C/C=C\C/C=C\C[C@H]1O[C@H]1CCCC(=O)NCCO (racemic) [(±)5(6)-EET Ethanolamide] | 450160 | 9.45 |  | 

Row | Compound | HSD17B13 Enzymatic Activity Relative Light Units [1] [RLU] | HSD17B13 Enzymatic Activity Percent Estradiol Control [2] [%] | HSD17B13 Enzymatic Activity Relative Light Units (Steroid Library, 50 μM steroid) [RLU] | HSD17B13 Enzymatic Activity Percent Estradiol Control (Steroid Library, 50 μM steroid) [%]
23 | CC/C=C\C/C=C\C=C\[C@@H](O)CCCCCCCC(=O)O [9(S)-HOTrE] | 586800 | 22.31 |  | 
24 | CC/C=C\C[C@H](O)/C=C/[C@H]1OC(=O)C[C@H](O)[C@@H]1C/C=C\CCCC(=O)O [11-dehydro Thromboxane B3] | 322480 | 3.11 |  | 
25 | CCCCC[C@H](O)/C=C/[C@@H]1[C@H](C/C=C\CC(=O)O)[C@@H](O)C[C@H]1O [2,3-dinor-8-iso Prostaglandin F2α] | 230040 | −4.19 |  | 
26 | (±)11(12)-EET | 306600 | 1.47 |  | 
27 | CC/C=C\C/C=C\C/C=C\C[C@H](O)/C=C/C=C\CCCC(=O)O [9(S)-HEPE] | 564200 | 20.63 |  | 
28 | CCCCC/C=C\C[C@H]1O[C@H]1C/C=C\C/C=C\CCCC(=O)NCCO [11(12)-EET Ethanolamide] | 440800 | 8.74 |  | 
29 | CCC(O)C(O)C/C=C\C/C=C\C/C=C\C/C=C\C/C=C\CCC(=O)O (racemic) [(±)19(20)-DiHDPA] | 827600 | 37.95 |  | 
30 | C[C@]12CCC(=O)C=C1CC[C@@H]1[C@@H]2C(=O)C[C@@]2(C)[C@H]1CC[C@]2(O)C(=O)CO [Cortisone] |  |  | 204080 | 0.76
31 | CCCCC/C=C\C/C=C\C/C=C\C=C\[C@@H](O)CCCC(=O)O [5(S)-HETE] | 430800 | 10.71 |  | 
32 | CC/C=C\C[C@@H](/C=C/C=C\C/C=C\C/C=C\CCCC(=O)O)OO [15(S)-HpEPE] | 316200 | 2.18 |  | 
33 | CCCCC/C=C\C=C\[C@H](O)CCCCCCCCCC(=O)O [11(R)-HEDE] | 1674200 | 103.16 |  | 
34 | CC(=O)N[C@@H](CSC(=O)[C@]1([C@@H](O)C(C)C)NC(=O)[C@H](C)[C@@H]1O)C(=O)O [Lactacystin] | 328520 | 0.26 |  | 
35 | O=C(O)CCC/C=C\C[C@@H]1[C@@H](/C=C/[C@@H](O)CCCCCO)[C@H](O)C[C@@H]1O [20-hydroxy Prostaglandin F2α] | 378680 | 7.56 |  | 
36 | CCCCC/C=C\C=C\[C@H](CCCCCCCC(=O)O)OO [9(S)-HpODE] | 219240 | −5.03 |  | 
37 | O=P(O)(O)O[C@@H]1C(O)[C@@H](OP(=O)(O)O)[C@@H](O)C(O)[C@H]1O (stereo partly drawn) [D-myo-Inositol-2,4-diphosphate (sodium salt)] | 306720 | −1.38 |  | 
38 | C[C@@H](O)CCC[C@H](O)/C=C/[C@H]1[C@H](O)CC(=O)[C@@H]1CCCCCCC(=O)O [19(R)-hydroxy Prostaglandin E1] | 333160 | 3.96 |  | 
39 | CCCCC[C@H](O)/C=C/[C@@H]1[C@@H](C/C=C\CCCC(=O)NCCCCCNC(=O)CCCC[C@H]2SC[C@@H]3NC(=O)N[C@@H]32)[C@@H](O)C[C@H]1O [Prostaglandin F2α-biotin] | 340200 | 1.14 |  | 
40 | CCCCCC(O)C=CC1OC(=O)CC(O)C1CC=CCC(=O)O (stereo not shown) [11-dehydro-2,3-dinor Thromboxane B2] | 183120 | −7.90 |  | 
41 | CC/C=C\C[C@H](O)/C=C/[C@H]1OC(O)C[C@H](O)[C@@H]1C/C=C\CCCC(=O)O (stereo partly shown) [Thromboxane B3] | 348080 | 5.14 |  | 
42 | C[C@]12CC[C@H]3[C@@H]([C@H]4C[C@H]4[C@]4(O)C[C@@H](O)CC[C@]34C)[C@@H]1[C@@H]1C[C@@H]1C2=O [3b,5-Dihydroxy-6b,7b:15b,16b-dimethylene-5b-androstan17-one] |  |  | 183120 | 0.39
43 | O=C(O)CCCC/C=C\C[C@@H](O)/C=C/C=C/C=C\[C@@H](O)CCCC(=O)O [20-carboxy Leukotriene B4] | 400440 | 9.28 |  | 
44 | Prostaglandin D2-biotin | 367880 | 3.24 |  | 
